Measurements: US4065575A, “3-Aminomethyl derivatives of 4-chromanone” (Joullie International, priority 1975, dated 1977)
“Also recorded” adds a separate entry of the source. Counter-ions that a name gives are not always drawn.

Key:
[1] = Acute toxicity in mice (LD 50); assay type: in vivo; conditions: mouse, in vivo, mice, 15 days observation
Procedure: (§1) The study is carried out on batches of 5 Swiss female mice of the NMRI Han. strain. The products are administered either intravenously (into the caudal vein) in solution in a 9 g..permill. sodium chloride solution, or orally (probang) in suspension in a 10% solution of gum arabic.
(§2) The animals are observed for the 15 days following the administration of the products.
(§3) The LD 50 values are calculated by the method of Karber and Behrens (Arch. Exp. Pathol. Pharm. 177, 1935, page 379).

mice = assay: Acute toxicity in mice (LD 50); assay type: in vivo; conditions: intravenous; in words
Procedure: as §1, §2, §3

[2] = tested on: isolated auricle of a rabbit; assay: Peripheral vasomotoricity, isolated and perfused auricle of a rabbit
Procedure: The flow rate of the liquid issuing from the veins is recorded by electronic contact on a polygraph. The products to be studied are injected at increasing doses into the perfusion tube and their actions are compared to that of isoxsuprine used as the reference substance.
The results, collected in Table No. III, are expressed in the maximum percentage increase of the flow rate at the various doses used.

[3] = tested on: hypertensive effects of electrical stimulation, adrenaline and noradrenaline; assay: α-Sympatholytic effects in amyeliated rats; assay type: in vivo; conditions: for % variation of the hypertensive effects obtained with adrenaline: adrenaline 1.25 to 2.5 μg./kg.; for % variation of the hypertensive effects obtained with noradrenaline: noradrenaline 1.25 to 2.5 μg./kg.
Text: The α-sympatholytic effects of LJ 1052 and LJ 1053 are compared with those of isoxsuprine in amyeliated rats which have been prepared by a method derived from those of Shipley and Tilden (Proc. soc. Exp. Biol. Med. 1947, 64, 453-455) and of Gillespie and Muir (Br. J. Pharmac. Chemother. 1967, 30, 78-87).
The effects on the blood pressure of electrical stimulation of the thoracolumbar sympathic nerve (rectangular signals = voltage 20 to 40 volts; width 2 m. sec; frequency 10 secs.; duration 5 to 10 secs.) and of injections of adrenaline (1.25 to 2.5 μg./kg.) and of noradrenaline (1.25 to 2.5 μg./kg.) are determined before and after injection of the products tested.

[4] = Cardiovascular action in dogs; assay type: in vivo, male Beagle dogs
Procedure: Male Beagle dogs weighing 9 to 12 kg. were anaesthetised by intrasaphenous injection of a 2% solution of chloralose in physiological solution, at a dose of 100 mg./kg.
The anaesthesia is maintained by slow perfusion of 5% pentobarbital (1.2 ml./hour).
The animals are tracheotomised and placed under assisted respiration by means of a Bird respirator. Their oxygenation and their acid-base equilibrium are controlled by determination of the pH, the pCO2 and the pO2 on blood samples taken from a collateral of the brachial artery (pH/gas analyser for blood, IL model 213/227).
The different parameters are recorded on a polygraph.

platelet aggregation = assay: Anti-platelet-aggregation in vitro; assay type: cell-based; conditions: in words
ADP platelet aggregation = assay: ADP aggregation test; assay type: cell-based; conditions: in words
[5] = dose 50 g./kg. (so in the source)
[6] = dose 100 g./kg. (so in the source)
[7] = dose 500 g./kg. (so in the source)
[8] = dose 2,500 g./kg. (so in the source)
[9] = 0.04 mg./kg. i.v. (1/1,000 LD 50)
[10] = 0.04 mg./kg. i.v. (1/1,000 LD 50), first or only phase

In the case of `COCCNCC1COc2ccccc2C1=O` (stereo not drawn) [LJ 1052, 3-(2-Methoxyethylaminomethyl)-4-chromanone hydrochloride], the LD50 at 360 h ([1]; intravenous administration) is reported as 47 mg/kg, the LD50 at 360 h ([1]; oral administration) is reported as 475 mg/kg and the “intravenous LD 50 in mice (comparison of three products)” value (mice) is reported as “practically identical”. For the same compound, the activation at 0.0001 mg ([2]; Oryctolagus cuniculus, dose 0.1 μg., read-out: Maximum variations in the flow rate) was 79%, the activation at 0.001 mg ([2]; Oryctolagus cuniculus, dose 1 μg., read-out: Maximum variations in the flow rate) was 77% and the activation at 0.01 mg ([2]; Oryctolagus cuniculus, dose 10 μg., read-out: Maximum variations in the flow rate) was 100%. The activation at 0.1 mg ([2]; Oryctolagus cuniculus, dose 100 μg., read-out: Maximum variations in the flow rate) was 150%, the “duration of the effects / of the action” value ([2]; at the highest doses) was ≥ 30 min and the peripheral vasodilatory action ([2]; in words, hydrochloride) was “great; also recorded: as active as isoxsuprine; also recorded: great even at very low doses”. For the same compound, the “% variation of the hypertensive effects obtained with electrical stimulation” value (“% variation … with electrical stimulation” for short) [3, 5] was 0%, the “% variation of the hypertensive effects obtained with adrenaline” value (“% variation … with adrenaline” below) [3, 5] was -15% and the “% variation of the hypertensive effects obtained with noradrenaline” value (shortened to “% variation … with noradrenaline”) [3, 5] was -11%. The “% variation … with electrical stimulation” value [3, 6] was 0%, the “% variation … with adrenaline” value [3, 6] was -28% and the “% variation … with noradrenaline” value [3, 6] was -12%. The “% variation … with electrical stimulation” value [3, 7] was -20%, the “% variation … with adrenaline” value [3, 7] was -77% and the “% variation … with noradrenaline” value [3, 7] was -38%. For the same compound, the “% variation … with electrical stimulation” value [3, 8] was -80%, the “% variation … with adrenaline” value [3, 8] was -77% and the “% variation … with noradrenaline” value [3, 8] was -50%. For the same compound, the “α-sympatholytic effect, comparison” value ([3]; same doses, in words) was “less α-sympatholytic than LJ 1053 and isoxsuprine”, the “Diastolic AP, duration of action” value [4, 9] was 2 min and the “Diastolic AP, maximum per cent variation” value [4, 9] was -29%. The “FF, duration of action” value [4, 9] was 30 min, the “Hb (heart beat), maximum per cent variation” value [4, 9] was “+14%” and the “Hb, duration of action” value [4, 9] was 25 min. The “LVP, duration of action” value [4, 9] was 25 min, the “Mean AP, duration of action” value [4, 9] was 2 min and the “Mean AP, maximum per cent variation” value [4, 9] was -25%. The “Systolic AP, duration of action” value [4, 9] was 30 min, the “Systolic AP, maximum per cent variation” value [4, 9] was “+13%” and the “LVP (left ventricular pressure), maximum per cent variation” value [4, 10] was “+9%”. The “dLVP/dt, maximum per cent variation” value [4, 10] was “+34%”, the “dLVP/dt, duration of action” value ([4]; 0.04 mg./kg. i.v. (1/1,000 LD 50), only phase) was 30 min and the “cardiovascular action compared with isoxsuprine” value ([4]; in words) was “comparable to or even greater than that of isoxsuprine”. For the same compound, the femoral flow rate ([4]; low doses, in words) was “activity comparable to that of isoxsuprine”, the anti-platelet-aggregation properties (platelet aggregation) was “marked anti-platelet-aggregation properties in vitro” and the “anti-aggregation activity compared with adenosine” value (ADP platelet aggregation) was “almost as active as adenosine”.
